Test results reported in ChEMBL document CHEMBL1201862, “PubChem BioAssay data set” (2004).
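Test compounds were applied to cells in 96-well plates for 48 hours at 5 doses. Abbreviation: GI50, concentration required for 50% inhibition of growth.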 Calls of active or inactive are those of the source. No stated cut-off is given here; in the data, active = GI50 up to about 1.1 µM and inactive = higher.

Legend:
Test in all cases: inhibition of tumour cell growth, NCI panel, 48 h
SF-295 = test system: SF-295
A549 = test system: A549
UACC-62 = test system: UACC-62
HCT-116 = test system: HCT-116
HOP-92 = test system: HOP-92
HL-60 = test system: HL-60
COLO 205 = test system: COLO 205
HT-29 = test system: HT-29
LOX IMVI = test system: LOX IMVI
NCI-H23 = test system: NCI-H23
SN12C = test system: SN12C
OVCAR-4 = test system: OVCAR-4
K562 = test system: K562
KM12 = test system: KM12
OVCAR-8 = test system: OVCAR-8
SNB-19 = test system: SNB-19
SNB-75 = test system: SNB-75
SF-268 = test system: SF-268
UO-31 = test system: UO-31
CCRF-CEM = test system: CCRF-CEM

Measured: GI50

COc1cc(C(=O)CC2OC(=O)C(Cl)=C2Cl)ccc1Cl (stereo not given)
inactive: SF-295 > 100 µM | A549 > 100 µM | UACC-62 > 100 µM | HCT-116 > 100 µM | HOP-92 > 100 µM | HL-60 > 100 µM | COLO 205 > 100 µM | HT-29 > 100 µM | LOX IMVI > 100 µM | NCI-H23 > 100 µM | SN12C > 100 µM | OVCAR-4 > 100 µM | K562 > 100 µM | KM12 > 100 µM | OVCAR-8 > 100 µM | SNB-19 > 100 µM | SNB-75 > 100 µM | SF-268 > 100 µM | UO-31 > 100 µM | CCRF-CEM 69 µM
